Experiments:
[1] = system: histamine-induced blue weal formation; assay: Sparrow/Wilhelm histamine-induced blue weal assay; format: in vivo, New Zealand white rabbits; details: for Result (relative intensity of blue weals, experimental vs control): scored 30 minutes after histamine
Description: This model relies on the principal that localized, subcutaneous injections of histamine will result in a localized increase in capillary permeability. When the test animal has been pretreated with blue dye intravenously, the localized histamine injections will elicit blue-colored “weals” around the injection site. Thus, by preadministration of an effective anti-inflammatory agent the blue color of the histamine-induced weals will be much less pronounced, with the amount of color reduction being dependent on the relative amount and/or potency of the anti-inflammatory agent used.
Non-moulting New Zealand white rabbits were used for the Sparrow/Wilhelm assay. The skin of the rabbits back was closely clipped 1-2 days previous to the experiment, but not depilated, and the rabbits were kept warm until tested. […] Control rabbits received sham injections. Fifteen minutes following injection of the agent or sham, the rabbits received approximately 30 mg/kg of Pontamine blue dye as a 2.5% solution in 0.45% saline, into an exposed vein. Immediately following dye injections, histamine was injected intradermally in a 0.10 ml volume (1.25 mg histamine 0.1 ml volume) at several sites on each side of the spine. In all, one vertical row of six injections were made on each side of the spine. The relative intensity of the resultant blue weals were scored by an independent observer 30 minutes after histamine injection.

[2] = system: inflammation induced in the ear by picryl chloride application; assay: Picryl chloride-induced ear swelling; format: in vivo, BALB/C mice; details: for % Inhibition 3 h: 3 h after picryl chloride; for % Inhibition 6 h: 6 h after picryl chloride
Experimental: Hiltz, M. E., Catania, A., Lipton, J. M., Anti-Inflammatory Activity of aα-MSH (11-13) Analogs: Influence of Alteration in Stereochemistry, 12 Peptides 767 (1981). […] Female BALB/C mice (Simonsen Laboratories), 7 weeks old, were housed at 23-25° C. in groups of no more than 5 per cage [28 cm (L)×18 cm (W)×13 cm (H)]. They were allowed to acclimatize to standard lighting and temperature conditions for at least 1 week, with food and water available ad lib, before the experiment began. Five to ten animals were randomly assigned to each treatment group each test day, and all experiments were repeated at least twice to confirm reproducibility. To reduce error due to slight differences in responses to the irritant of animals from different shipments, tests of each agent were performed as separate experiments in which experimental and control animals were drawn from the same shipment.
In the experiments each animal was anesthetized with 1 mg of pentobarbital sodium solution ([…], Nembutal, Abbott Laboratories, Abbott park, Ill.). Baseline ear thickness was measured for both ears with a spring-loaded micrometer (Swiss Precision Instruments, Los Angeles, Calif.). Ear thickness was expressed in units of 10^−3 cm; the average thickness of unstimulated ears was approximately 25-30×10^−3 cm. After baseline measurements were taken, one of six solutions was injected IP. […] The doses of the tripeptides were 10 μg (2.6×.10^−8 M), 20 μg (5.2×.10^−8 M), 40 μg (1.04×.10^−7 M), and 80 μg (2.08×.10^−7 M). Immediately after saline or α-MSH injection, a micropipette was used to coat both sides of each ear with 10 μl […] of a 0.5% picryl chloride (Polysciences, Warrington, Pa.) solution in acetone.
Ear thickness was remeasured 3 and 6 h after picryl chloride application. Swelling was determined by subtracting baseline thickness from the measurements for each ear at 3 and 6 h. The differences for both ears were then averaged for the final analysis.
Repeated-measure ANOVA techniques were used to determine if there was an overall difference among group data for each peptide tested in separate experiments. In those cases in which the ANOVA yielded significant results, Dunnett's test was then used to compare the effects of peptide doses with control (saline) data for each of the two time periods, 3 and 6 h.

[3] = system: edema caused by intradermal injection of recombinant human IL-1β in the mouse ear; assay: IL-1β-induced ear edema with centrally administered α-MSH and receptor antagonists; format: in vivo, BALB/c mice; details: α-MSH(1-13) given centrally with propranolol injected centrally
Experimental: See Macaluso, A., McCoy, D., Ceriani, G., Watanabe, T., Biltz, J., Catania, A., and Lipton, J. M., Anti-inflammatory Influences of a-MSH Molecules: Central Neurogenic and Peripheral Actions, 14(4), J. of Neuroscience 2377-2382 (1994). Female BALB/c mice (Simonsen Laboratories, Gilroy, Calif.), 7-8 weeks old, were housed at 23-25° C. in groups not exceeding five animals per cage [28 cm (L)×18 cm (W)×13 cm (H)]. Before the experiments they were acclimatized for not less than 1 week before experimentation to standard lighting and temperature conditions with food and water freely available.
Mice were anesthetized with 10% pentobarbital sodium solution (1 mg/mouse, 50 mg/ml, Nembutal sodium solution; Abbott Laboratories, North Chicago, Ill.). Baseline ear thickness measurements were taken with a spring-loaded micrometer (Swiss Precision Instruments, Los Angeles, Calif.). Ear thickness was expressed in centimeters and was measured at least twice at each time point. The average thickness of unstimulated ears was […]. Inflammation was induced by injecting 20 μl of recombinant human IL-1β (1500 U; Genzyme, Cambridge, Mass.) directly into the skin (intradermally) of one ear of each mouse using a 28 gauge needle (Hiltz et al., 1992). Measures of ear thickness were repeated 4 and 6 hr later, while the mice were under sodium pentobarbital anesthesia.
Several agents were administered at the time of ear challenge to pharmacologically block certain receptors: atropine (Sigma Chemical Co.; 150 μg i.p.), a muscarinic receptor blocker that acts on autonomic end-organ receptors, was chosen because of links between inflammation and modulation of pain and the finding that muscarinic antagonists increase pain threshold (Hartvig et al., 1989); phentolamine (Sigma; 150 μg i.p.) an agent that competes for occupancy of α-adrenergic receptors; propranolol (Sigma; 150 μg, i.p.; 30 μg, i.c.v.), a nonspecific competitive antagonist for β-adrenergic receptors.
Because of the size of the experiments and the requirement for several shipments of animals over time, several experiments were performed, each with complete treatment and control groups drawn from the same shipment of mice. Omnibus analysis of variance techniques (Dynastat, Washington, D.C.) were used to test overall differences among group means. Tukey's protected t test was used to compare individual means. Probability values of <0.05 were considered significant.

Substance	Result (relative intensity of blue weals, experimental vs control) ([1]; 0.625 ug/kg protected tripeptide intravenously)	Result (relative intensity of blue weals, experimental vs control) ([1]; 1.25 ug/kg protected tripeptide intravenously)	Result (relative intensity of blue weals, experimental vs control) ([1]; 5 ug/kg protected tripeptide intravenously)	Result (relative intensity of blue weals, experimental vs control) ([1]; 10 ug/kg protected tripeptide intravenously)	lowest intravenous dose giving appreciable reduction in histamine-induced blue weal formation ([1]; rabbits, intravenous)	% Inhibition 3 h ([2]; 10 μg IP)	% Inhibition 6 h ([2]; 10 μg IP)	% Inhibition 3 h ([2]; 20 μg IP)	% Inhibition 6 h ([2]; 20 μg IP)	% Inhibition 3 h ([2]; 40 μg IP)	% Inhibition 6 h ([2]; 40 μg IP)	% Inhibition 3 h ([2]; 80 μg IP)	% Inhibition 6 h ([2]; 80 μg IP)	overall effect on inflammation (ANOVA) ([2]; 10-80 μg IP, 3 and 6 h)	inhibition of ear edema by α-MSH ([3]; 4 hr)	inhibition of ear edema by α-MSH ([3]; 6 hr)
Ac-Lys-Pro-Val-NH2 [α-MSH(11-13)]	No difference	E lighter than C	E lighter than C	E lighter than C	1.25 µg/kg	26%	25%	21%	19%	33%	26%	50%	42%	inhibited acute inflammation		
SYSMEHFRWGKPV [α-MSH(1-13)]															36%	32%
